Patent US7074925B1, “N-substituted derivatives of 5-oxyiminobarbituric acid” (priority 1998, dated 2006)
Marks after values point to notes of the source that are not given here.

Tests used:
[1] = tested on: primary culture of human lymphocytes (IFN-α production); assay: Interferon-inducing activity in primary culture of human lymphocytes; type: cell-based
Protocol: Interferon synthesis induction caused by the claimed compounds was conducted on a primary culture of human lymphocytes (it is these cells in a human organism that are the main producers of interferons). To obtain lymphocyte culture, fresh blood (within 12 hours after sampling) from healthy donors (not of group II) was used. To separate lymphocytes, heparinized blood obtained from healthy donor was centrifuged in a density gradient of ficoll-verografin of […] in order to extract a fraction of immunocompetent cells. This fraction was selected and diluted with the nutrient medium RPMI-1640, containing 5% of fetal calf serum, 0.3 mg/ml of L-glutamin, 100 un/ml of penicillin, and […] of streptomycin. The concentration of lymphocytes was considered after dying them with methylene blue and calculation of cell number in Goryaev chamber. Initial solutions of the claimed compounds were diluted with the nutrient medium RPMI-1640 so that the final concentrations of the compounds, which were obtained after introduction of lymphocyte suspension, constituted the raw: 100 μg/ml, 10 μg/ml, 1 μg/ml. The final concentration of lymphocytes in the induction mixture was 3×10^6 cell/ml.
In parallels to the test samples the following controls were done: • 1). Control of spontaneous production of interferons (IFN) by lymphocytes. • 2). […] Control of spontaneous production of interferons in presence of DMSO taken in an amount corresponding to the test samples.
Control and test samples were incubated for 24 hours at the temperature of 37° C. After incubation, the samples were centrifuged at 2,000 G to deposit cell elements, and IFN-containing supernatant was separate out of samples; then the supernatant was analyzed for the quantitative content of IFN. Cell deposition was resuspended in the previous volume of nutrient medium, coloured with vital dye trypan blue, and cell number was counted in the Goryaev chamber (as described above) to determine cytotoxic action of the compounds. The quantitative determination of content of IFN in control and test samples was conducted using the immunoenzyme test system Pro Con IF2 Plus, that is intended for determination of IFN-α, which is produced by TOO “Protein contour”. The solid-phase immunoenzyme method, utilizing horse radish peroxidase as an indicator enzyme, was used to determine the quantity of interferon in the samples. Activity of the bonded peroxidase was measured using an automatic photometer for microplates with a microprocessor at the wavelength of 450 nm.
Based on the obtained results, a calibrating curve was formed, which allows to obtain data expressed in international units (IU) of activity, using the microprocessor of the automatic photometer. The results of the analysis are expressed in IU of activity of IFN per ml in the given induction system, which contains 3×10^4 lymphocyte/ml. Each test and control point was investigated in four parallels.
Controls of immunoenzyme reaction: • 1. Control of DMSO with a nutrient medium. • 2. Control of system components (according to an instruction).
The obtained data were undergone a statistical analysis using t-criterion, and calculation of the confident interval of probability at p=0.05 was carried out. Coincidence of results in the parallel tests was analyzed.

[2] = tested on: Herpes virus of the type I (HSV-I/Leningrad/248/88); assay: Effect on Herpes virus, cytopathogenic action on Vero cells; type: cell-based, Herpes Simplex virus; settings: for Quantity of the unchanged cells (number of cells in 100 visual fields): Vero cells, 36 hours, cell control 10000; for percentage of protection of cells from virus: compared to the control of cell culture
Protocol: An antiviral activity was determined with respect to Herpes virus of the type I (HSV-I/Leningrad/248/88) by means of commonly accepted method. Viruses were grown on a continuous culture of Vero cells that have been received from the Bank of Cell Cultures of the Institute of Cytology of the Russian Academy of Science.
A virus in a final concentration of […] and the claimed compounds dissolved in DMSO in final concentrations of 100, 10 and 1 mg/l were added to cells that were grown on the RPMI-1640 medium with 10% fetal calf serum and placed into wells of the 96-well plate. 5 separate wells were used for each of tested concentrations of an agent. The plate was incubated during 60 minutes at 38° C. in a CO2-incubator. After the incubation, the virus was removed and then a fresh medium containing claimed compounds in used concentrations was again introduced.
Results were evaluated basing on presence of cytopathogenic action on the cells after 36 hours of incubation at 38° C. in the CO2-incubator.
The next controls were used in the experiment: • 1. Control of cell culture (capability to grow properly) • 2. Control of the virus (evaluation of capability for reproduction) • 3. Control of an antiviral activity of an antiviral drug Acyclovir • 4. Control of compounds (toxicity of compounds) • 5. Control of a solvent (DMSO) for toxicity.
To estimate a cytopathic action of the virus, a quantity of the unchanged cells was calculated in 100 visual fields formed by a special net of an eyepiece of the inverted microscope.

C.trachomatis D323 = assay: Action on Chlamydia trachomatis in cell culture; type: cell-based; settings: 100 mg/l; for Number of unchanged cells: 48 hours, counted in 100 visual fields, cell control 8.000, infected cells 6.000
Protocol: The antimicrobial activity of the claimed compounds was studied relative to C.trachomatis […], which is a standard strain from the collection of the chair of microbiology of St. Petersburg State Pavlov Medical University. […] Cell cultures McCoy and L929 obtained from the Institute of Cytology of RAS were used in this work. Cells were grown in flasks made of neutral glass in the medium RPMI-1640 with the addition of 10% of fetal calf serum. The test was performed in glass (non-toxic) flat-bottom flasks with cover glasses. The cells were introduced into the medium in the final concentration of […]. […] Simultaneously, tested compounds in a final concentration of 100 mg/l were added to the cells. The sample was centrifuged at 2400 G during 60 minutes at room temperature and incubated at 37° C. for 2 hours. […] The samples were doubled using the medium without cycloheximide so as to exclude its effect on the investigated compounds. The samples were incubated in a CO2-incubator for 48 hours. […] The effect of the action of substance was determined by analysis of the monolayer state and number of cells with CPI when compared with the control (cell culture infected with C.trachomatis […]); in doing so, the number of unchanged cells, that were counted in 100 visual fields obtained using the special net of the microscope eyepiece, was taken into consideration. […] Control of cell culture: morphology of cells and state of monolayer correspond to the given type of the cells; control of chlamydia growth in the cell culture: presence of CPI in the monolayer; control of action of standard antimicrobial agent: reduction of number of CPI in the monolayer as compared to the previous control; control of toxicity of the claimed compounds: toxicity is absent; control of action of solvents: toxic action on cells is absent.

[3] = Antiulcerous action, water immersion stress with immobilization; type: in vivo, rats; settings: 20 mg/kg perorally
Protocol: Antiulcerous activity of substances was tested on a model of experimental water immersion stress with immobilization. […] After that, gastric mucous membrane was investigated, number and sizes of ulcers were counted, ulceration index was determined (an average sum of ulcer lengths per one animal in a group).

[4] = Hypoglycemic activity after glucose load; type: in vivo, mice; settings: Glibenclamide I mg/kg
Protocol: Test substance (100 mg/kg) was perorally administrated to fasted mice, and, immediately after that, solution of glucose (1000 mg/kg) was administrated subcutaneously. Glucose content in blood was determined in a hour by the orthotoluidine method. Reducing of glucose level by more than 20% relative to control animals indicated hypoglycemic properties. Glibenclamide (I mg/kg) was utilized as a reference agent.

[5] = tested on: Human's platelet aggregation; assay: Antiaggregational properties, ADP-induced platelet aggregation; type: cell-based; settings: Homo sapiens, Platelet, ADP 2.5 μmol/l
Description: Human's platelet aggregation was investigated in plasma of healthy 50±3 years donors that was enriched by thrombocytes, by means of aggregometer FRM-1. […] Magnitude of a maximum non-reversible platelet aggregation in the control samples (solvent) was adopted as 100%, and that in tested samples was counted as the percentage compared to the control.

Row | SMILES | Content of IFN in induction mixture after 24-hour incubation ([1]; substance 1 mg/l) | Content of IFN in induction mixture after 24-hour incubation ([1]; substance 10 mg/l) | Content of IFN in induction mixture after 24-hour incubation ([1]; substance 100 mg/l) | Quantity of the unchanged cells (number of cells in 100 visual fields) ([2]; compound 100 μg/ml) | percentage of protection of cells from virus ([2]; compound 100 μg/ml) | percentage of cell protection from infection (C.trachomatis D323) | Number of unchanged cells (C.trachomatis D323) | further results
1 | CC(C)(C)N1C(=O)NC(=O)C(=NO)C1=O [III] | 4.2 ± 0.8 IU/3 × 10^4 lymph./ml | 23.5 ± 1.2 IU/3 × 10^4 lymph./ml | 65 ± 1.2 IU/3 × 10^4 lymph./ml | 5000 | (50%) | (50%) | 7.000 | –
2 | C=CCN1C(=O)C(=NO)C(=O)NC1=S [XXXIX] | – | – | – | – | – | (65%) | 7.300 | –
3 | CN(C)CCCN1c2ccccc2Sc2ccc(Cl)cc21 [Chlorpromazine, reference compound] | – | – | – | – | – | – | – | % of animals with ulcers ([3]; rats, 4 hours stress, control 100): 33%; % of reducing number of ulcers ([3]; versus control): −96%; % of reducing ulceration index ([3]; versus control): −97%; Number of lesions ([3]; control 8.3 ± 2.5): 0.3 ± 0.3; ulceration index ([3]; control 10.5 ± 5.7): 0.3 ± 0.3
4 | O=C1NC(=S)N(c2ccc(Cl)cc2)C(=O)C1=NO [XLVI] | 6.6 ± 0.8 IU/3 × 10^4 lymph./ml | 24.4 ± 1.4 IU/3 × 10^4 lymph./ml | 52.1 ± 1.8 IU/3 × 10^4 lymph./ml | – | – | – | – | –
5 | COc1ccc(Cl)cc1C(=O)NCCc1ccc(S(=O)(=O)NC(=O)NC2CCCCC2)cc1 [Glibenclamide, reference compound] | – | – | – | – | – | – | – | % change of glucose relative to glucose control [4]: −40%; Glucose in blood ([4]; glucose 1000 mg/kg s.c., after one hour): 4.95 ± 0.31 mmol/L
6 | Cc1ccccc1N1C(=O)NC(=O)C(=NO)C1=O [XX] | – | – | – | 3500 | (35%) | – | – | –
7 | CC(=O)Oc1ccccc1C(=O)O [Aspirin, aspirin, reference compound] | – | – | – | – | – | – | – | inhibition at 9 µg/mL ([5]; 9 μg/ml): 100%
8 | CCN1C(=O)C(=NO)C(=O)NC1=S [XXXVI] | 5.2 ± 1.0 IU/3 × 10^4 lymph./ml | 6.8 ± 1.5 IU/3 × 10^4 lymph./ml | 26.0 ± 1.4 IU/3 × 10^4 lymph./ml | – | – | – | – | –
9 | O=C1NC(=O)N(CCC2=CCCCC2)C(=O)C1=NO [X] | 8.6 ± 1.0 IU/3 × 10^4 lymph./ml | 11.0 ± 1.2 IU/3 × 10^4 lymph./ml | 30 ± 1.8 IU/3 × 10^4 lymph./ml | – | – | – | – | –
10 | O=C1NC(=O)N(Cc2ccc(F)cc2)C(=O)C1=NO [XII] | – | – | – | 4000 | (40%) | (30%) | 6.600 | –
11 | CC(Cc1ccccc1)N1C(=O)NC(=O)C(=NO)C1=O (stereo not drawn) [XVII] | 6.2 ± 0.5 IU/3 × 10^4 lymph./ml | 13.0 ± 2.5 IU/3 × 10^4 lymph./ml | 19.2 ± 1.2 IU/3 × 10^4 lymph./ml | – | – | (35%) | 6.700 | –
12 | COc1ccc(CN2C(=O)NC(=O)C(=NO)C2=O)cc1 [XIII] | – | – | – | 4500 | (45%) | (50%) | 7.000 | –
13 | O=C1NC(=O)N(CCc2ccc(F)cc2)C(=O)C1=NO [XV] | – | – | – | 4000 | (40%) | – | – | –
14 | Nc1nc2c(ncn2COCCO)c(=O)[nH]1 [Acyclovir, reference compound] | – | – | – | – | – | – | – | Quantity of the unchanged cells (number of cells in 100 visual fields) ([2]; Acyclovir): 8000*; percentage of protection of cells from virus ([2]; Acyclovir): (80%)**
15 | Nc1ncnc2c1ncn2[C@@H]1O[C@H](CO)[C@@H](O)[C@H]1O [Adenosine, reference compound] | – | – | – | – | – | – | – | inhibition at 5 µg/mL ([5]; 5 μg/ml): 100%
16 | O=C1NC(=O)N(c2cccc3ccccc23)C(=O)C1=NO [XXXIV] | – | – | – | – | – | (35%) | 6.700 | –
17 | CCOc1ccc(N2C(=O)NC(=O)C(=NO)C2=O)cc1 [XXX] | – | – | – | 3000 | (30%) | (35%) | 6.700 | –
18 | O=C1NC(=O)N(Cc2ccccc2)C(=O)C1=NO [XI] | 32.8 ± 1.0 IU/3 × 10^4 lymph./ml | 53.5 ± 1.2 IU/3 × 10^4 lymph./ml | 60 ± 1.8 IU/3 × 10^4 lymph./ml | 3500 | (35%) | – | – | –
